From patent US8685992B2, “Histone deacetylase inhibitors based simultaneously on trisubstituted 1H-pyrroles and aromatic and heteroaromatic spacers” (Universidad del País Vasco, priority 2009, dated 2014)

Assays:
SK-MEL-5 = assay: Cancer cell growth inhibition, SK-MEL-5; format: cell-based, human; details: Homo sapiens; SK-MEL-5, Melanoma, 72 h treatment
Experimental: (§1) Cell culture-based assays were used to evaluate the ability of compounds of the invention to inhibit cancer cell growth inhibition.
(§2) Cells were obtained from the American Type Culture Collection (ATCC). Cells were cultured at 37° C. with 5% CO2 in the appropriate growth medium (see table below), and harvested respectively during the logarithmic growth period and counted with hemocytometer. The cell viability was over 98% by trypan blue exclusion. Cell concentrations were adjusted between 5×10^4 and 2×10^5 cells/ml with respective medium.
(§3) Stock solutions of test compounds and positive drugs Doxorubicin (Zhejiang, Haizheng, China), Paclitaxel (Beijing, Xiehe, China), Vincristin (Shenzhen Wanle, China), 5-FU (Tianjin jinyaoanjisuan, China), Irinotecan (Jiangsu Hengrui, China) and Cisplatin Nanjing zhiyao, China) were prepared in dimethyl sulphoxide (DMSO) or PBS at 20 mM.
(§4) All treatments were performed in triplicate. 10 μl drug solution was added to each well and incubated for 72 hours. At the end of the incubation, 20 μl of the freshly prepared MTS/PMS mixture solution was added to each well and incubated for 4 hours at 37° C. in a humidified, 5% CO2 atmosphere. Absorbance was read at 490 nm using SpectraMAX Plus microplate spectrophotometer. […] In order to calculate IC50, a dose-responsive curve was fitted using nonlinear regression model with a sigmoidal dose response.

MCF-7-218 = assay: Cancer cell growth inhibition, MCF-7-218; format: cell-based; details: Homo sapiens; MCF-7-218, Breast Cancer, 72 h treatment
Experimental: as §1, §2, §3, §4

LoVo = assay: Cancer cell growth inhibition, LoVo; format: cell-based, human; details: Homo sapiens, Colorectal Cancer, 72 h treatment
Experimental: as §1, §2, §3, §4

K562 = assay: Cancer cell growth inhibition, K562; format: cell-based, human; details: Homo sapiens; K562, CML, 72 h treatment
Experimental: as §1
Cells were obtained from the American Type Culture Collection (ATCC). Cells were cultured at 37° C. with 5% CO2 in the appropriate growth medium (see table below), and harvested respectively during the logarithmic growth period and counted with hemocytometer. […] Cell concentrations were adjusted between 5×10^4 and 2×10^5 cells/ml with respective medium.
as §3, §4

PANC-1 = assay: Cancer cell growth inhibition, PANC-1; format: cell-based, human; details: Homo sapiens; PANC-1, Pancreatic Cancer, 72 h treatment
Experimental: as §1, §2, §3, §4

A549 = assay: Cancer cell growth inhibition, A549; format: cell-based, human; details: Homo sapiens; A549, Lung Cancer, 72 h treatment
Experimental: as §1, §2, §3, §4

143b = assay: Cancer cell growth inhibition, 143b; format: cell-based; details: Homo sapiens, Osteosarcoma, 72 h treatment
Experimental: as §1, §2, §3, §4

Hep3B = assay: Cancer cell growth inhibition, Hep3B; format: cell-based, human; details: Homo sapiens, Liver Cancer, 72 h treatment
Experimental: as §1, §2, §3, §4

KB = assay: Cancer cell growth inhibition, KB; format: cell-based, human; details: Homo sapiens, Oral Cancer, 72 h treatment
Experimental: as §1, §2, §3, §4

BT474 = assay: Cancer cell growth inhibition, BT474; format: cell-based; details: Homo sapiens, BT-474; BT474, Breast Cancer, 72 h treatment
Experimental: as §1, §2, §3, §4

Human HDAC3/NcoR2 = Human HDAC3/NcoR2 (Homo sapiens (Human), UniProt O15379); assay: HDAC3 fluorogenic peptide deacetylation assay; format: biochemical; details: human HDAC3/NcoR2, 50 μM substrate, 30° C., 2 h; read-out: IC50 (nM) of enzyme activity HDAC3
Chain of Human HDAC3/NcoR2 (O15379 whole entry): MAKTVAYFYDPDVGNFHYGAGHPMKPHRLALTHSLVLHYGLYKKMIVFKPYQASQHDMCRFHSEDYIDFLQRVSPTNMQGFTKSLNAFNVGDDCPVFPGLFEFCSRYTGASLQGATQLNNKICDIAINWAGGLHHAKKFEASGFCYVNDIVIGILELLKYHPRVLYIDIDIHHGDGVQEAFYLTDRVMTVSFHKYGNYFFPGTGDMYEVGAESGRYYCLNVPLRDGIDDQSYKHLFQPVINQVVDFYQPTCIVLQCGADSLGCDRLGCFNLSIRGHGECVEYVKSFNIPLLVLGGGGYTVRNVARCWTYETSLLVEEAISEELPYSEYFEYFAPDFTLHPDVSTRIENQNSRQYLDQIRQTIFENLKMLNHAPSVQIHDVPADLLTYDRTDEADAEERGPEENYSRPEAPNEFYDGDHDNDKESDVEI
Chain of Human HDAC3/NcoR2 (Q9Y618 395-489 partner): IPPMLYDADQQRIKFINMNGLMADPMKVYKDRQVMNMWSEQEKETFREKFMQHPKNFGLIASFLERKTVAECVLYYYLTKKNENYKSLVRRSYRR

BGC823 = assay: Cancer cell growth inhibition, BGC823; format: cell-based, human; details: Homo sapiens, BGC-823; BGC823, Gastric Cancer, 72 h treatment
Experimental: as §1, §2, §3, §4

MDA-MB-231 = assay: Cancer cell growth inhibition, MDA-MB-231; format: cell-based, human; details: Homo sapiens; MDA-MB-231, Breast Cancer, 72 h treatment
Experimental: as §1, §2, §3, §4

HT-29 = assay: Cancer cell growth inhibition, HT-29; format: cell-based, human; details: Homo sapiens; HT-29, Colorectal Cancer, 72 h treatment
Experimental: as §1, §2, §3, §4

A375 = assay: Cancer cell growth inhibition, A375; format: cell-based, human; details: Homo sapiens, A-375; A375, Melanoma, 72 h treatment
Experimental: as §1, §2, §3, §4

Bx-PC-3 = assay: Cancer cell growth inhibition, Bx-PC-3; format: cell-based, human; details: Homo sapiens, BXPC-3; Bx-PC-3, Pancreatic Cancer, 72 h treatment
Experimental: as §1, §2, §3, §4

DU145 = assay: Cancer cell growth inhibition, DU145; format: cell-based, human; details: Homo sapiens, DU-145; DU145, Prostate Cancer, 72 h treatment
Experimental: as §1, §2, §3, §4

Calu-6 = assay: Cancer cell growth inhibition, Calu-6; format: cell-based, human; details: Homo sapiens; Calu-6, Lung Cancer, 72 h treatment
Experimental: as §1, §2, §3, §4

OVCAR3 = assay: Cancer cell growth inhibition, OVCAR3; format: cell-based, human; details: Homo sapiens, OVCAR-3; OVCAR3, Ovarian Cancer, 72 h treatment
Experimental: as §1, §2, §3, §4

RPMI-8226 = assay: Cancer cell growth inhibition, RPMI-8226; format: cell-based, human; details: Homo sapiens; RPMI-8226, Orthotopic Multiple Myeloma, 72 h treatment
Experimental: as §1, §2, §3, §4

SK-BR-3 = assay: Cancer cell growth inhibition, SK-BR-3; format: cell-based, human; details: Homo sapiens; SK-BR-3, Breast Cancer, 72 h treatment
Experimental: as §1, §2, §3, §4

U87MG = assay: Cancer cell growth inhibition, U87MG; format: cell-based, human; details: Homo sapiens, U-87 MG, Glioblastoma, 72 h treatment
Experimental: as §1, §2, §3, §4

Human HDAC9 = Human HDAC9 (Homo sapiens (Human), UniProt Q9UKV0); assay: HDAC9 fluorogenic peptide deacetylation assay; format: biochemical; details: human HDAC9, 50 μM substrate, 30° C., 2 h; read-out: IC50 (nM) of enzyme activity HDAC9
Chain of Human HDAC9 (Q9UKV0 other isoform, or with tags, fused parts or gaps): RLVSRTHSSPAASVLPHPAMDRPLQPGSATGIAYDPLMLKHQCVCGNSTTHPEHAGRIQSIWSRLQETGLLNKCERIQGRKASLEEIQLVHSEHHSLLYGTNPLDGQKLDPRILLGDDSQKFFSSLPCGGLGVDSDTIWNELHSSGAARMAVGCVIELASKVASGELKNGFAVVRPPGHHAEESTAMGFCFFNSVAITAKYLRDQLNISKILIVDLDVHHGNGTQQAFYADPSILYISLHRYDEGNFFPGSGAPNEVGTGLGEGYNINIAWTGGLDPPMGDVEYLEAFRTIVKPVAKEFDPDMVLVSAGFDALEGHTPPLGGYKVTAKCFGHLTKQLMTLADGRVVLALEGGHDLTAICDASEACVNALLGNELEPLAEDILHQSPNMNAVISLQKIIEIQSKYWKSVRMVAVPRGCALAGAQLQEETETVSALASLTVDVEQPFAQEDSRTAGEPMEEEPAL

Human HDAC5 = Human HDAC5 (Homo sapiens (Human), UniProt Q9UQL6); assay: HDAC5 fluorogenic peptide deacetylation assay; format: biochemical; details: human HDAC5, 50 μM substrate, 30° C., 2 h; read-out: IC50 (nM) of enzyme activity HDAC5
Chain of Human HDAC5 (Q9UQL6 other isoform, or with tags, fused parts or gaps): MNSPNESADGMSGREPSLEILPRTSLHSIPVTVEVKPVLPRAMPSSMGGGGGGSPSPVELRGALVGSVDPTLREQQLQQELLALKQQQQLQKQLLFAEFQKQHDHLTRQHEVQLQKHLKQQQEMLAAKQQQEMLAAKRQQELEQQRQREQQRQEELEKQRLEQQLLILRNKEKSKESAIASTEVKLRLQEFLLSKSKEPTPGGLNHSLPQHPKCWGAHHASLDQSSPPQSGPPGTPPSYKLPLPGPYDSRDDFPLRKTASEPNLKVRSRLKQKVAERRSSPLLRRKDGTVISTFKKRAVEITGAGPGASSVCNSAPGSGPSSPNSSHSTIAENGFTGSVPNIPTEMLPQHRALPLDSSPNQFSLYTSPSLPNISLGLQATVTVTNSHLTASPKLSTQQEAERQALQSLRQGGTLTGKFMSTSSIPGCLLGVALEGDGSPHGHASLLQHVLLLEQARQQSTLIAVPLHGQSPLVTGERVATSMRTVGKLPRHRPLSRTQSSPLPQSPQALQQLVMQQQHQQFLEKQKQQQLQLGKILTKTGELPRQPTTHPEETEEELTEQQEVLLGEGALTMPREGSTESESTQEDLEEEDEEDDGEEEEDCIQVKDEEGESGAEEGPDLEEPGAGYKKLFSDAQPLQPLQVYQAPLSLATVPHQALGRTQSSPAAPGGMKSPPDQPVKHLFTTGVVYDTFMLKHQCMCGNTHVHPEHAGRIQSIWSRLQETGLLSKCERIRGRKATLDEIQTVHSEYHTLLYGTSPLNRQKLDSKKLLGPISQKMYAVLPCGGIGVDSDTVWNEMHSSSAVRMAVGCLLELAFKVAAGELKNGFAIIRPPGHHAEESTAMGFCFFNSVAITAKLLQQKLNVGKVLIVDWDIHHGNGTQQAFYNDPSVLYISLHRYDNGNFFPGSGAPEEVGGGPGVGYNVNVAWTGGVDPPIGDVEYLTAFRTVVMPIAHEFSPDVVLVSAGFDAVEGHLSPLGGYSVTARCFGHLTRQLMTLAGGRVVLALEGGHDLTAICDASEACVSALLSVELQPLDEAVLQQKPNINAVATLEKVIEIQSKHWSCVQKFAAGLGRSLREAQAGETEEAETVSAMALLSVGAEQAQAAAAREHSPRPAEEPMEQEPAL

Human HDAC4 = Human HDAC4 (Homo sapiens (Human), UniProt P56524); assay: HDAC4 fluorogenic peptide deacetylation assay; format: biochemical; details: human HDAC4, 50 μM substrate, 30° C., 2 h; read-out: IC50 (nM) of enzyme activity HDAC4
Chain of Human HDAC4 (P56524 627-1084 limits assumed): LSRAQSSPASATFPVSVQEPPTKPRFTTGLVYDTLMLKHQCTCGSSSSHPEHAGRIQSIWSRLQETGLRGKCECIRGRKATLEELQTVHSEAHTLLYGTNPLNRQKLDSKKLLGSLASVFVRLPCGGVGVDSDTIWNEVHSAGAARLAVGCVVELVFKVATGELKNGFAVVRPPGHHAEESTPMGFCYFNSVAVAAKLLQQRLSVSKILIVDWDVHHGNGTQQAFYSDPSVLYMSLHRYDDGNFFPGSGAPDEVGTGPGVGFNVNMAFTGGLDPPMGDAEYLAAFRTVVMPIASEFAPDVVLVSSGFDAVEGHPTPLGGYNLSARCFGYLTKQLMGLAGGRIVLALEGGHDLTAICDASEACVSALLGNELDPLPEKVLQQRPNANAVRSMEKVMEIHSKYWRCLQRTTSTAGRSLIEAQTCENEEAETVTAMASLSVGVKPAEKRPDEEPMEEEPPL

Human HDAC11 = Human HDAC11 (Homo sapiens (Human), UniProt Q96DB2); assay: HDAC11 fluorogenic peptide deacetylation assay; format: biochemical; details: human HDAC11, 50 μM substrate, 30° C., 2 h; read-out: IC50 (nM) of enzyme activity HDAC11
Chain of Human HDAC11 (Q96DB2 whole entry): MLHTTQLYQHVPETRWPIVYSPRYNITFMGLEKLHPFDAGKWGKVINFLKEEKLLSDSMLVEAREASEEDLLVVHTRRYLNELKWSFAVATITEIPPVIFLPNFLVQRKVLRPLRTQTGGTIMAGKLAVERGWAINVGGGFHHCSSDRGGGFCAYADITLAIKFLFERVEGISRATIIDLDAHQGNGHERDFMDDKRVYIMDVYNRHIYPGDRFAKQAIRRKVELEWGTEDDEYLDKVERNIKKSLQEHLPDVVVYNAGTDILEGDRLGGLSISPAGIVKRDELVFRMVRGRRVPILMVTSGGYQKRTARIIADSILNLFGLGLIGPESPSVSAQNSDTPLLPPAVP

Human HDAC10 = Human HDAC10 (Homo sapiens (Human), UniProt Q969S8); assay: HDAC10 fluorogenic peptide deacetylation assay; format: biochemical; details: human HDAC10, 50 μM substrate, 30° C., 2 h; read-out: IC50 (nM) of enzyme activity HDAC10
Chain of Human HDAC10 (Q969S8 1-631): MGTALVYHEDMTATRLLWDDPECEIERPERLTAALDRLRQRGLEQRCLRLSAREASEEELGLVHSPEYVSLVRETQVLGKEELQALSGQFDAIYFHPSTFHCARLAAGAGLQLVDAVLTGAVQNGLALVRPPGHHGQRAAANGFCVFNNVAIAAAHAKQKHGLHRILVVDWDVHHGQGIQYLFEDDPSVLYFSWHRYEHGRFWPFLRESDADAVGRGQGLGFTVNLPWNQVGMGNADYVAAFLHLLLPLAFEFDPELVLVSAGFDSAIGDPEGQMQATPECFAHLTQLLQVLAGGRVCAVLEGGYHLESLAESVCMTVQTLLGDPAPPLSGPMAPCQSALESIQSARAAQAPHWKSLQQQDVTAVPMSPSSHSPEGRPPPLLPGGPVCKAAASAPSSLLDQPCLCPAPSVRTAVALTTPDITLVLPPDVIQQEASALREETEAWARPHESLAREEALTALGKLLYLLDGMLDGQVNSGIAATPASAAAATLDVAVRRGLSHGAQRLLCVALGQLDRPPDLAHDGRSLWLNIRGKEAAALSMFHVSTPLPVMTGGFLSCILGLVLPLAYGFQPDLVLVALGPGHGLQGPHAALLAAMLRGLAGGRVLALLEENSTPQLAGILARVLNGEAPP

SMILES | IC50 (SK-MEL-5) [nM] | IC50 (LoVo) [nM] | IC50 (PANC-1) [nM] | IC50 (A549) [nM] | IC50 (143b) [nM] | IC50 (Hep3B) [nM] | IC50 (KB) [nM] | IC50 (BT474) [nM] | IC50 (Human HDAC3/NcoR2) [nM] | IC50 (BGC823) [nM] | IC50 (MDA-MB-231) [nM] | IC50 (HT-29) [nM] | IC50 (A375) [nM] | IC50 (Bx-PC-3) [nM] | IC50 (DU145) [nM] | IC50 (Calu-6) [nM] | IC50 (OVCAR3) [nM] | IC50 (RPMI-8226) [nM] | IC50 (SK-BR-3) [nM] | IC50 (U87MG) [nM] | also measured
O=C(NO)c1ccc(CNC(=O)c2[nH]c(-c3ccoc3)cc2-c2ccc(O)cc2)cc1 [Example 9, 5-(3-furyl)-N-{4-[(hydroxyamino)carbonyl]benzyl}-3-(4-hydroxyphenyl)-1H-pyrrole-2-carboxamide] | 3340 | 1910 | 10700 | 11400 | 12900 | 3180 | 2960 | 3630 | 298 | 9680 | 4260 | 10700 | 10200 | 7730 | 4510 | 9600 | 9990 | 1310 | 1500 | 10800 | IC50 (MCF-7-218): 12800 nM; IC50 (K562): 1040 nM
COc1ccc(-c2cc(-c3ccsc3)c(C(=O)NCc3ccc(C(=O)NO)cc3)[nH]2)cc1 [Example 28, N-{4-[(hydroxyamino)carbonyl]benzyl}-5-(4-methoxyphenyl)-3-(3-thienyl)-1H-pyrrole-2-carboxamide] | 3790 | 3850 | 11500 | 3430 | 11100 | 4270 | 3420 | 12900 | 273 | 7800 | 73800 | 25900 | 4270 | 8280 | 1860 | 726 | 4760 | 462 | 4080 | 8960 | IC50 (K562): 1370 nM; IC50 (Human HDAC9): 478 nM; IC50 (Human HDAC5): 640 nM; IC50 (Human HDAC4): 2430 nM; IC50 (Human HDAC11): 718 nM; IC50 (Human HDAC10): 723 nM

The next compounds have a lower IC50 (SK-MEL-5) than those just listed; values first:

IC50 (SK-MEL-5) [nM] | IC50 (LoVo) [nM] | IC50 (PANC-1) [nM] | IC50 (A549) [nM] | IC50 (143b) [nM] | IC50 (Hep3B) [nM] | IC50 (KB) [nM] | IC50 (BT474) [nM] | IC50 (Human HDAC3/NcoR2) [nM] | IC50 (BGC823) [nM] | IC50 (MDA-MB-231) [nM] | IC50 (HT-29) [nM] | IC50 (A375) [nM] | IC50 (Bx-PC-3) [nM] | IC50 (DU145) [nM] | IC50 (Calu-6) [nM] | IC50 (OVCAR3) [nM] | IC50 (RPMI-8226) [nM] | IC50 (SK-BR-3) [nM] | IC50 (U87MG) [nM] | SMILES | also measured
851 | 498 | 9840 | 11000 | 2620 | 2700 | 702 | 1630 | 124 | 13700 | 4070 | 5780 | 7700 | 6830 | 1520 | 4070 | 25200 | 336 | 334 | 9350 | O=C(NO)c1ccc(CNC(=O)c2[nH]c(-c3ccc(O)cc3)cc2-c2ccsc2)cc1 [Example 14, N-{4-[(hydroxyamino)carbonyl]benzyl}-5-(4-hydroxyphenyl)-3-(3-thienyl)-1H-pyrrole-2-carboxamide] | IC50 (MCF-7-218): 37600 nM; IC50 (K562): 1300 nM; IC50 (Human HDAC9): 277 nM; IC50 (Human HDAC5): 172 nM; IC50 (Human HDAC4): 956 nM; IC50 (Human HDAC11): 319 nM; IC50 (Human HDAC10): 316 nM
292 | 150 | 6440 | 2460 | 1930 | 859 | 184 | 442 | 46.1 | 5140 | 1830 | 2290 | 3680 | 2250 | 460 | 1220 | 8050 | 426 | 453 | 6560 | O=C(NO)c1ccc(CNC(=O)c2[nH]c(-c3ccc(O)cc3)cc2-c2ccoc2)cc1 [Example 15, 3-(3-furyl)-N-{4-[(hydroxyamino)carbonyl]benzyl}-5-(4-hydroxyphenyl)-1H-pyrrole-2-carboxamide] | IC50 (MCF-7-218): 26500 nM; IC50 (K562): 739 nM; IC50 (Human HDAC9): 59 nM; IC50 (Human HDAC5): 60 nM; IC50 (Human HDAC4): 338 nM; IC50 (Human HDAC11): 72 nM; IC50 (Human HDAC10): 35 nM
256 | 430 | 965 | 1020 | 2570 | 614 | 315 | 119 | 75 | 676 | 1490 | 1010 | 1040 | 775 | 338 | 492 | 904 | 58.6 | 771 | 1390 | COc1ccc(-c2cc(-c3ccoc3)c(C(=O)NCc3ccc(C(=O)NO)cc3)[nH]2)cc1 [Example 27, 3-(3-furyl)-N-{4-[(hydroxyamino)carbonyl]benzyl}-5-(4-methoxyphenyl)-1H-pyrrole-2-carboxamide] | IC50 (Human HDAC9): 163 nM; IC50 (Human HDAC5): 222 nM; IC50 (Human HDAC4): 1080 nM; IC50 (Human HDAC11): 341 nM
